{
  "source": "paper PMC8991007",
  "about": "“Benzylic Dehydroxylation of Echinocandin Antifungal Drugs Restores Efficacy against Resistance Conferred by Mutated Glucan Synthase” (Journal of the American Chemical Society, 2022)",
  "key": {"C. albicans": {"tested_on": "C. albicans", "experiment": "Minimum inhibitory concentration broth double-dilution assay", "assay_type": "cell-based, Candida albicans", "conditions": "24 h, 30 °C", "description": "(§1) The antifungal activities of compounds 1 and 2 were evaluated against a panel of 50 strains of C. albicans and C. glabrata (Table S4), including echinocandin-resistant strains that were constructed by introducing mutations within and near the defined hotspots in the FKS1 and/or FKS2 genes.[27] To evaluate antifungal activity, we determined MIC values. The MIC was defined as the lowest drug concentration that led to turbidity (measured at 600 nm) of less than or equal to 35% of that of the untreated culture. As controls, we tested CSF, MCF, ANF, and RZF.\n(§2) All of the tested compounds were dissolved in anhydrous DMSO to a concentration of 5 mg/mL. Candida strains were streaked from a glycerol stock onto YPAD agar plates and grown for 24 h at 30 °C. Colonies were suspended in 1 mL of PBS and diluted to an O.D. of 0.01 at 600 nm with YPAD broth and added into flat-bottom 96-well microplates (Corning) containing a gradient of twofold dilutions per tested compound with concentrations ranging from 64 to 0.0009 μg/mL. Control wells with no drug and blank wells without yeast cells containing YPAD only were also prepared. […] Each concentration was tested in triplicate, and results were confirmed by at least two independent sets of experiments."}, "C. glabrata": {"tested_on": "C. glabrata", "experiment": "Minimum inhibitory concentration broth double-dilution assay", "assay_type": "cell-based, Candida glabrata", "conditions": "24 h, 30 °C", "description": "as §1, §2"}, "[1]": {"conditions": "#2 C. albicans DPL1015 (DP-A15)"}, "[2]": {"conditions": "#3 C. albicans DPL1016 (DP-A15-10)"}},
  "note": "*1 amine or outer side, *2 acyl side, *3 side chain or, on linkers, in order; H or OH if unused. Where a SMILES comes first, the peptide text is derived from it. Bridges are numbered along the chain shown (N, C = ends). [ ]: non-standard residue; d: D form. The star is where a group is joined. hTyr(3S-OH,4S-OH,3'-OSO3H) = N[C@H](C(=O)O)[C@H](O)[C@@H](O)c1ccc(O)c(OS(=O)(=O)O)c1; Orn(4R-OH,5R-OH) = O=C([C@H](C[C@@H](O)[C@@H](O)N[*:3])N[*:1])[*:2]; Pro(3S-OH,4S-Me) = C[C@H]1CN[C@H](C(=O)O)[C@H]1O; X1 = CCCCCOc1ccc(-c2cc(-c3ccc(C(=O)*)cc3)no2)cc1; Gln(3R-OH) = NC(=O)C[C@@H](O)[C@H](N)C(=O)O; Hyp = O=C(O)[C@@H]1C[C@@H](O)CN1",
  "data": [
    {"smiles": "CC[C@H](C)C[C@H](C)CCCCCCCCC(=O)N[C@H]1C[C@@H](O)[C@@H](NCCN)NC(=O)[C@@H]2[C@@H](O)CCN2C(=O)[C@H]([C@H](O)CCN)NC(=O)[C@H]([C@H](O)[C@@H](O)c2ccc(O)cc2)NC(=O)[C@@H]2C[C@@H](O)CN2C(=O)[C@H]([C@@H](C)O)NC1=O", "note": "[CSF, caspofungin]", "values": [
      {"measurement": "MIC", "setting": "C. albicans; #1 C. albicans Sc5314", "value": 0.015, "unit": "µg/mL"},
      {"measurement": "MIC", "setting": "C. albicans; [1]", "value": 1, "unit": "µg/mL"},
      {"measurement": "MIC", "setting": "C. albicans; [2]", "value": "> 64", "unit": "µg/mL"},
      {"measurement": "MIC", "setting": "C. albicans; #4 C. albicans T-2068 (DP-C42)", "value": 32, "unit": "µg/mL"},
      {"measurement": "MIC", "setting": "C. albicans; #5 C. albicans T-2069 (DP-85)", "value": 16, "unit": "µg/mL"},
      {"measurement": "MIC", "setting": "C. albicans; #6 C. albicans (DP-89)", "value": "> 64", "unit": "µg/mL"},
      {"measurement": "MIC", "setting": "C. albicans; #7 C. albicans T-2076 (DP-194)", "value": 1, "unit": "µg/mL"},
      {"measurement": "MIC", "setting": "C. albicans; #8 C. albicans T-2077 (DP-205)", "value": 16, "unit": "µg/mL"},
      {"measurement": "MIC", "setting": "C. glabrata; #9 C. glabrata EF1620", "value": 0.031, "unit": "µg/mL"},
      {"measurement": "MIC", "setting": "C. glabrata; #10 C. glabrata TGL00277", "value": "> 64", "unit": "µg/mL"},
      {"measurement": "MIC", "setting": "C. glabrata; #11 C. glabrata TGL00275", "value": 32, "unit": "µg/mL"},
      {"measurement": "MIC", "setting": "C. glabrata; #12 C. glabrata CST78", "value": 0.015, "unit": "µg/mL"},
      {"measurement": "MIC", "setting": "C. glabrata; #13 C. glabrata TGL00265", "value": "> 64", "unit": "µg/mL"},
      {"measurement": "MIC", "setting": "C. glabrata; #14 C. glabrata TGL00264", "value": 4, "unit": "µg/mL"},
      {"measurement": "MIC", "setting": "C. glabrata; #15 C. glabrata TGL00263", "value": 64, "unit": "µg/mL"},
      {"measurement": "MIC", "setting": "C. glabrata; #16 C. glabrata TGL00065", "value": "> 64", "unit": "µg/mL"},
      {"measurement": "MIC", "setting": "C. glabrata; #17 C. glabrata CST34", "value": 0.015, "unit": "µg/mL"},
      {"measurement": "MIC", "setting": "C. glabrata; #18 C. glabrata TGL00258", "value": "> 64", "unit": "µg/mL"},
      {"measurement": "MIC", "setting": "C. glabrata; #19 C. glabrata TGL00256", "value": 16, "unit": "µg/mL"},
      {"measurement": "MIC", "setting": "C. glabrata; #20 C. glabrata TGL00107", "value": "> 64", "unit": "µg/mL"},
      {"measurement": "MIC", "setting": "C. glabrata; #21 C. glabrata TGL00056", "value": "> 64", "unit": "µg/mL"},
      {"measurement": "MIC", "setting": "C. glabrata; #22 C. glabrata M12", "value": 0.015, "unit": "µg/mL"},
      {"measurement": "MIC", "setting": "C. glabrata; #23 C. glabrata TGL00270", "value": "> 64", "unit": "µg/mL"},
      {"measurement": "MIC", "setting": "C. glabrata; #24 C. glabrata TGL00269", "value": 16, "unit": "µg/mL"},
      {"measurement": "MIC", "setting": "C. glabrata; #25 C. glabrata TGL00268", "value": "> 64", "unit": "µg/mL"},
      {"measurement": "MIC", "setting": "C. glabrata; #26 C. glabrata TGL00268", "value": "> 64", "unit": "µg/mL"},
      {"measurement": "MIC", "setting": "C. glabrata; #27 C. glabrata EB0911", "value": 0.031, "unit": "µg/mL"},
      {"measurement": "MIC", "setting": "C. glabrata; #28 C. glabrata TGL00261", "value": "> 64", "unit": "µg/mL"},
      {"measurement": "MIC", "setting": "C. glabrata; #29 C. glabrata TGL00109", "value": 64, "unit": "µg/mL"},
      {"measurement": "MIC", "setting": "C. glabrata; #30 C. glabrata TGL00259", "value": "> 64", "unit": "µg/mL"}
    ]},
    {"smiles": "CCCCCOc1ccc(-c2cc(-c3ccc(C(=O)N[C@H]4C[C@@H](O)[C@@H](O)NC(=O)[C@@H]5[C@@H](O)[C@@H](C)CN5C(=O)[C@H]([C@H](O)CC(N)=O)NC(=O)[C@H]([C@H](O)[C@@H](O)c5ccc(O)c(OS(=O)(=O)O)c5)NC(=O)[C@@H]5C[C@@H](O)CN5C(=O)[C@H]([C@@H](C)O)NC4=O)cc3)no2)cc1", "note": "[MCF, micafungin] (X1-[Orn(4R-OH,5R-OH)]T[Hyp][hTyr(3S-OH,4S-OH,3'-OSO3H)][Gln(3R-OH)][Pro(3S-OH,4S-Me)]; lactam 1-C)", "values": [
      {"measurement": "MIC", "setting": "C. albicans; #1 C. albicans Sc5314", "value": 0.031, "unit": "µg/mL"},
      {"measurement": "MIC", "setting": "C. albicans; [1]", "value": 1, "unit": "µg/mL"},
      {"measurement": "MIC", "setting": "C. albicans; [2]", "value": 16, "unit": "µg/mL"},
      {"measurement": "MIC", "setting": "C. albicans; #4 C. albicans T-2068 (DP-C42)", "value": 4, "unit": "µg/mL"},
      {"measurement": "MIC", "setting": "C. albicans; #5 C. albicans T-2069 (DP-85)", "value": 2, "unit": "µg/mL"},
      {"measurement": "MIC", "setting": "C. albicans; #6 C. albicans (DP-89)", "value": 4, "unit": "µg/mL"},
      {"measurement": "MIC", "setting": "C. albicans; #7 C. albicans T-2076 (DP-194)", "value": 1, "unit": "µg/mL"},
      {"measurement": "MIC", "setting": "C. albicans; #8 C. albicans T-2077 (DP-205)", "value": 2, "unit": "µg/mL"},
      {"measurement": "MIC", "setting": "C. glabrata; #9 C. glabrata EF1620", "value": 0.015, "unit": "µg/mL"},
      {"measurement": "MIC", "setting": "C. glabrata; #10 C. glabrata TGL00277", "value": 8, "unit": "µg/mL"},
      {"measurement": "MIC", "setting": "C. glabrata; #11 C. glabrata TGL00275", "value": 2, "unit": "µg/mL"},
      {"measurement": "MIC", "setting": "C. glabrata; #12 C. glabrata CST78", "value": 0.004, "unit": "µg/mL"},
      {"measurement": "MIC", "setting": "C. glabrata; #13 C. glabrata TGL00265", "value": 1, "unit": "µg/mL"},
      {"measurement": "MIC", "setting": "C. glabrata; #14 C. glabrata TGL00264", "value": "> 64", "unit": "µg/mL"},
      {"measurement": "MIC", "setting": "C. glabrata; #15 C. glabrata TGL00263", "value": 0.125, "unit": "µg/mL"},
      {"measurement": "MIC", "setting": "C. glabrata; #16 C. glabrata TGL00065", "value": 32, "unit": "µg/mL"},
      {"measurement": "MIC", "setting": "C. glabrata; #17 C. glabrata CST34", "value": 0.002, "unit": "µg/mL"},
      {"measurement": "MIC", "setting": "C. glabrata; #18 C. glabrata TGL00258", "value": "> 64", "unit": "µg/mL"},
      {"measurement": "MIC", "setting": "C. glabrata; #19 C. glabrata TGL00256", "value": 0.125, "unit": "µg/mL"},
      {"measurement": "MIC", "setting": "C. glabrata; #20 C. glabrata TGL00107", "value": "> 64", "unit": "µg/mL"},
      {"measurement": "MIC", "setting": "C. glabrata; #21 C. glabrata TGL00056", "value": "> 64", "unit": "µg/mL"},
      {"measurement": "MIC", "setting": "C. glabrata; #22 C. glabrata M12", "value": 0.002, "unit": "µg/mL"},
      {"measurement": "MIC", "setting": "C. glabrata; #23 C. glabrata TGL00270", "value": 16, "unit": "µg/mL"},
      {"measurement": "MIC", "setting": "C. glabrata; #24 C. glabrata TGL00269", "value": 0.125, "unit": "µg/mL"},
      {"measurement": "MIC", "setting": "C. glabrata; #25 C. glabrata TGL00268", "value": "> 64", "unit": "µg/mL"},
      {"measurement": "MIC", "setting": "C. glabrata; #26 C. glabrata TGL00268", "value": "> 64", "unit": "µg/mL"},
      {"measurement": "MIC", "setting": "C. glabrata; #27 C. glabrata EB0911", "value": 0.008, "unit": "µg/mL"},
      {"measurement": "MIC", "setting": "C. glabrata; #28 C. glabrata TGL00261", "value": 4, "unit": "µg/mL"},
      {"measurement": "MIC", "setting": "C. glabrata; #29 C. glabrata TGL00109", "value": "> 64", "unit": "µg/mL"},
      {"measurement": "MIC", "setting": "C. glabrata; #30 C. glabrata TGL00259", "value": 32, "unit": "µg/mL"}
    ]}
  ]
}
